{"source": "patent US4879212A", "about": "“Peptide composition and method for the detection of antibodies to HTLV-III” (United Biomedical Inc., priority 1987, dated 1989)", "key": {"anti HTLV-III antibodies": {"system": "anti HTLV-III antibodies", "test": "Immunoreactivity of peptides at 1 ug per well in ELISA with pooled AIDS serum, relative to 21mer peptide", "format": "binding, human", "settings": "for Reactivity %: 1 ug per well, pooled AIDS serum sample, 21mer peptide set as 100%", "from_the_text": "Various peptide analogs based on the above described amino acid sequence have been prepared. These analogs and their reactivities with the anti HTLV-III antibodies present in sera of AIDS and ARC patients are described in Example 8 and Table III. The reactivity in an ELISA test for the same amount of each peptide by weight per volume was compared with the reactivity of the 21mer peptide, which was assigned a reactivity of 100.\nThe 35mer peptide, 19mer peptide, 11mer peptide and eight analogues of the 21mer peptide, and overlapping 19mer peptide were prepared in their amide form according to the classical Merrifield method described herein above.\nThe immunoreactivity of the various peptides at 1 ug per well level was tested using a pooled AIDS serum sample. The reactivity of each peptide was compared with the reactivity of the 21mer peptide which was set as 100%."}, "antibodies to HTLV-III [1]": {"system": "antibodies to HTLV-III", "format": "binding, human", "settings": "screened out from over 500 HTLV III positive AIDS serum specimens", "description": "Following the procedure described in Example 1, mixtures of the 21mer peptide with the 19mer peptide with various weight ratios, from 10:1.25 to 4:1, were used as the immunoadsorbent. The wells were coated with 1 ug of the mixture. The serum samples used were two samples from patients which had been diagnosed as positive for AIDS and two samples from patients with autoimmune diseases. The two AIDS positive samples were screened out from over 500 HTLV III positive AIDS serum specimens and had been showned to be negative in ELISA using only the 21mer peptide as the immunoadsorbent."}, "antibodies to HTLV-III [2]": {"system": "antibodies to HTLV-III", "from_the_text": "A third problem which has plagued this area is the possibility of false negative results.\nwhere A492 (RC) is the absorbance reading for the reactive control and A492 (NRC) is the absorbance reading for the non-reactive control."}, "antibodies to HTLV-III [3]": {"system": "antibodies to HTLV-III", "settings": "cited from earlier work"}}, "note": "Ends that are not written are not given here."}
{"substance": "RILAVERYKLDQQLLGIWGCSGKLICTTAVPWNAS (cysteine pairing not given here) [Peptide 17]", "values": [{"measurement": "Reactivity %", "setting": "anti HTLV-III antibodies", "value": 132.0, "unit": "%"}, {"measurement": "immunoreactivity (in words)", "setting": "anti HTLV-III antibodies; observed from Table III", "value": "highest immunoreactivity"}]}
{"substance": "Arg--Ile--Leu--Ala--Val--Glu--Arg--Tyr--Leu--Lys--Asp--Gln--Gln--Leu--Leu--Gly--Ile--Trp--Gly--Cys--Ser [Peptide 6]", "values": [{"measurement": "Reactivity %", "setting": "anti HTLV-III antibodies", "value": 100, "unit": "%"}, {"measurement": "ELISA result of the two AIDS positive samples", "setting": "antibodies to HTLV-III [1]", "value": "negative"}, {"measurement": "serum samples positive by Western Blot Analysis giving negative results", "setting": "antibodies to HTLV-III [2]; 12 out of 449", "value": "about 2.67%"}, {"measurement": "accuracy of the results", "setting": "antibodies to HTLV-III [2]; cutoff point=0.1xA492 (RC)+1xA492 (NRC)", "value": "about 98%"}, {"measurement": "serum samples positive by Western Blot Analysis giving negative results, out of 449", "setting": "antibodies to HTLV-III [2]; mostly at the later stage of AIDS", "value": 12}]}
{"substance": "Arg-Ile-Leu-Ala-Val-Glu-Arg-Tyr-Leu-Lys-Asp-Gln-Gln-Leu--Leu-Gly-Ile-Trp-Gly-Cys-Ser-Gly-Lys-Leu-Ile-Cys-X", "values": [{"measurement": "immunoreactivity (in words)", "setting": "antibodies to HTLV-III [3]", "value": "not as good as the deactivated virus"}]}
